In PubChem BioAssay (NCI):
Values joined by “and” are separate entries in the source; they are usually repeats but may differ in a detail not shown here. Equal values may be shown once.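 All cell lines were grown in 96-well plates and treated with compound for 48 hours. GI50: concentration for 50% inhibition of growth. TGI: total growth inhibition.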

Legend:
Assay in all cases: NCI tumour cell line growth inhibition, 48 h
MDA-N = system: MDA-N
DLD-1 colon = system: DLD-1 colon
HOP-18 NSCLC = system: HOP-18 NSCLC
XF 498 CNS = system: XF 498 CNS
LXFL 529 NSCLC = system: LXFL 529 NSCLC
DMS 114 small cell lung = system: DMS 114 small cell lung
KM20L2 colon = system: KM20L2 colon
SNB-78 CNS = system: SNB-78 CNS
RXF-631 renal = system: RXF-631 renal
SN12K1 renal = system: SN12K1 renal
P388 leukemia = system: P388 leukemia
P388/ADR leukemia = system: P388/ADR leukemia

Compound | TGI (MDA-N) | TGI (DLD-1 colon) [µM] | TGI (HOP-18 NSCLC) [µM] | TGI (XF 498 CNS) [µM] | TGI (LXFL 529 NSCLC) [µM] | TGI (DMS 114 small cell lung) [µM] | TGI (KM20L2 colon) [µM] | TGI (SNB-78 CNS) [µM] | TGI (RXF-631 renal) [µM] | other results
CCO/C=C1\SC(=S)N(c2ccc(OCC)cc2)C1=O | > 100 µM |  |  |  |  |  |  |  |  | 
COc1ccc2c(C(=O)O)cc3ccccc3c2c1OC |  | > 100 | 28.9 | 29.2 | 30.9 | 38 | 58.1 | 33.4 |  | 
O=C1c2ccccc2C(=O)c2c(NC3CCCCC3)ccc(Nc3ccc(S(=O)(=O)O)cc3)c21 | > 100 µM |  |  |  |  |  |  |  |  | 
Cc1ccccc1C(CCCO)C(=O)O (configuration not stated) |  | > 100 |  | > 100 | > 100 | > 100 |  | > 100 |  | 
CCCCCCCCCCCC[C@@H](O)[C@H]1CC[C@H]([C@H](O)CC[C@H](O)[C@@H]2CC[C@@H](CCCCCCCC3=C[C@H](C)OC3=O)O2)O1 | > 50 µM |  |  |  |  |  |  |  |  | GI50 (MDA-N): > 50 µM
CCOC(=O)C1=C(NC)OCC1=O |  |  |  | > 100 | > 100 | > 100 | > 100 | > 100 | > 100 | 
CC(=O)Nc1ccc(C2CC(c3ccc([N+](=O)[O-])cc3)=Nc3ccccc3S2=O)cc1 (configuration not stated) |  | 34.5 | > 100 | 55.8 | 34.6 | 69.1 | 57.5 |  |  | 
O=C(NCCc1ccccc1)C1C(=O)C(=O)N(CCc2ccccc2)C1=O (configuration not stated) |  | > 100 |  | > 100 | > 100 |  | > 100 | > 100 | > 100 | 
CC12OC(=O)C(C#N)C1(C)C1C(=O)CCCC12 (configuration not stated) |  | > 100 | > 100 | > 100 | > 100 | > 100 | > 100 |  |  | 
N#Cc1ccc(Sc2nc3ccccc3[nH]2)cc1 |  | > 100 | > 100 |  | > 100 | > 100 |  | > 100 |  | 
O=C1C2C3C=CC(C2C(=O)N1CO)C1C2C(=O)N(CO)C(=O)C2C31 (configuration not stated) |  | > 73.7 | 76.7 | > 100 | > 100 | > 58.6 | > 31.6 | > 100 | > 100 | 
COc1ccc2nc(NC(=O)C(=O)CC(=O)c3ccc([N+](=O)[O-])cc3)sc2c1 |  | > 100 |  | > 100 | > 100 | > 100 | > 100 |  | > 100 | 
CC(=O)O[C@H]1CC2C(C3CC[C@H](C(C)CCC(=O)O)[C@]31C)[C@H](OC(C)=O)C[C@@H]1CC3(CC[C@]21C)OOC1(CCC(C)CC1)OO3 (some centres not stated) | 19.9 µM and 15 µM |  |  |  |  |  |  |  |  | 
NC(N)=NCCCC(NCc1c2ccccc2nc2ccccc12)C(=O)O (configuration not stated) | > 100 µM | 50.5 |  |  | > 100 | 79.4 | 86.7 |  |  | 
COc1cc(/C=C2\NC(=O)C(Cc3cc(OC)c(OC)c(C)c3OC)N(C(C)=O)C2=O)c(OC)c(C)c1OC (configuration not stated) |  | > 100 | 99.6 |  | > 100 | > 100 | > 100 |  |  | 
COC12C(COC(=O)NCCO)C3=C(C(=O)C(C)=C(N)C3=O)N1CC1NC12 (configuration not stated) | > 264 µM |  |  |  |  |  |  |  |  | 
O=[N+]([O-])c1ccc(-c2ccc(C3=Nn4c(CNc5ccccc5Cl)nnc4SC3)o2)cc1 |  | > 100 |  | > 100 | > 100 |  | > 100 | > 100 |  | 
CC(=O)Oc1c(C(=O)[O-])cc(C(C)C)cc1C(C)C.CC(=O)Oc1c(C(=O)[O-])cc(C(C)C)cc1C(C)C.CC(=O)Oc1c(C(=O)[O-])cc(C(C)C)cc1C(C)C.CC(=O)Oc1c(C(=O)[O-])cc(C(C)C)cc1C(C)C.[Cu+2].[Cu+2] | 33.4 µM |  |  |  |  |  |  |  |  | GI50 (MDA-N): 18.8 µM

Compound | TGI (MDA-N) | TGI (DLD-1 colon) [µM] | TGI (HOP-18 NSCLC) [µM] | TGI (XF 498 CNS) [µM] | TGI (LXFL 529 NSCLC) [µM] | TGI (DMS 114 small cell lung) [µM] | TGI (KM20L2 colon) [µM] | TGI (SNB-78 CNS) [µM] | TGI (RXF-631 renal) [µM] | other results
[O]=[V]([OH])([OH])[OH] | > 100 µM |  |  |  |  |  |  |  |  | GI50 (MDA-N): 94.6 µM
Cc1ccc(S(=O)(=O)NCCCCC(N)C(=O)O)cc1 (configuration not stated) | > 100 µM |  |  |  |  |  |  |  |  | 
O=C(O)CN(CCN(CC(=O)O)CC(=O)O)CC(=O)O.[Mn+2] | > 100 µM |  |  |  |  |  |  |  |  | GI50 (MDA-N): > 100 µM
CC1NOC(=O)C1N=Nc1ccc(Cl)cc1Cl (configuration not stated) |  | > 100 | 50.4 | 45 | 45.3 | 53.9 | > 100 | 69.2 | > 100 | 
C[C@H](C(=O)O)C(=O)NC(=O)N(Cc1ccccc1)N=O |  | > 100 | 0.0783 | > 100 | > 100 | > 100 | > 100 | > 100 |  | 
CC(=O)OCC(=O)[C@@]1(O)CC[C@H]2[C@@H]3C[C@H](C)C4=CC(=O)C=C[C@]4(C)[C@@]3(F)[C@@H](O)C[C@@]21C |  | > 100 |  | > 100 |  | > 100 | > 100 | > 100 | > 100 | 
OC(c1ccccc1Br)(c1ccccc1Br)C(F)(F)F |  | 97.6 | > 100 | 38.2 | > 100 | 38.2 | 52.3 |  |  | 
O=C(CCCC(=O)Nc1ccc(Cl)cc1Cl)CC(=O)c1ccc2ccccc2c1 |  | > 100 | > 100 |  | > 100 | > 100 | > 100 | > 100 | > 100 | 
COc1cc(OC)c(OC)cc1/C=C/c1nc2ccccc2s1 | > 100 µM |  |  |  |  |  |  |  |  | 
N#CC1CC(c2ccccc2)Nc2cc(Cl)ccc2N1 (configuration not stated) |  | > 100 | > 100 | 92 | > 100 | 97.3 | > 100 | > 100 |  | 
c1ccc(C(c2ccccc2)c2ccccn2)cc1 |  | > 100 | > 100 | > 100 |  | > 100 | > 100 | > 100 | > 100 | 
O=C1NC(=O)C2C(=O)NC(=O)C1C2Cc1ccco1 (configuration not stated) |  | > 100 |  | > 100 |  | > 100 | > 100 | > 100 |  | 
Cn1c(=O)c2nc3sc4c(n3c2n(C)c1=O)C(=O)c1ccccc1C4=O | > 100 µM | > 100 | > 100 | > 100 | > 100 | > 100 | > 100 | > 100 | > 100 | 
CCOC(=O)C1(C)CCC(C(C(=O)O)C(=O)O)CC1=O (configuration not stated) |  | > 100 | > 100 |  | > 100 | > 100 | > 100 | > 100 | > 100 | 
O=NN(CCCl)C(=O)NC1CCC(CC(=O)O)CC1 (configuration not stated) |  | > 100 | > 100 | > 100 | > 100 | > 100 | > 100 | > 100 |  | TGI (SN12K1 renal): > 100 µM; TGI (P388 leukemia): > 62.3 µM and 16.7 µM; TGI (P388/ADR leukemia): > 100 µM and 13.7 µM
COC(=O)C1=C(C(=O)OC)C2(c3ccccc3)OC1(c1ccccc1)c1cc3ccccc3cc12 |  | 3.46 | 2.45 |  | 2.63 |  | 3.76 |  | 4.69 | 
CC(=O)[CH-]C(=O)c1ccccc1.[C-]#[O+].[C-]#[O+].[Ir] |  | > 100 | > 100 |  |  |  |  |  |  | GI50 (DLD-1 colon): > 100 µM; GI50 (HOP-18 NSCLC): > 100 µM
